Test results published in ChEMBL document CHEMBL4382204 (Eur J Med Chem, 2018).

Tests used:
[1] = target: Bcr/Abl fusion protein (Homo sapiens) (UniProt P00519+P11274); settings: BaF3
Description: Inhibition of wild type BCR/ABL (unknown origin) transfected in mouse BAF3 cells assessed as growth inhibition after 72 hrs by CCK8 assay

[2] = Antiproliferative activity in mouse BAF3 cells after 72 hrs by CCK8 assay; assay type: cell-based
[3] = system: Bcr/Abl fusion protein (Homo sapiens), P00519+P11274 [T315I]; settings: BaF3

Chain of Bcr/Abl fusion protein (Homo sapiens) (P00519 whole entry, looked up, the tested form may be a part): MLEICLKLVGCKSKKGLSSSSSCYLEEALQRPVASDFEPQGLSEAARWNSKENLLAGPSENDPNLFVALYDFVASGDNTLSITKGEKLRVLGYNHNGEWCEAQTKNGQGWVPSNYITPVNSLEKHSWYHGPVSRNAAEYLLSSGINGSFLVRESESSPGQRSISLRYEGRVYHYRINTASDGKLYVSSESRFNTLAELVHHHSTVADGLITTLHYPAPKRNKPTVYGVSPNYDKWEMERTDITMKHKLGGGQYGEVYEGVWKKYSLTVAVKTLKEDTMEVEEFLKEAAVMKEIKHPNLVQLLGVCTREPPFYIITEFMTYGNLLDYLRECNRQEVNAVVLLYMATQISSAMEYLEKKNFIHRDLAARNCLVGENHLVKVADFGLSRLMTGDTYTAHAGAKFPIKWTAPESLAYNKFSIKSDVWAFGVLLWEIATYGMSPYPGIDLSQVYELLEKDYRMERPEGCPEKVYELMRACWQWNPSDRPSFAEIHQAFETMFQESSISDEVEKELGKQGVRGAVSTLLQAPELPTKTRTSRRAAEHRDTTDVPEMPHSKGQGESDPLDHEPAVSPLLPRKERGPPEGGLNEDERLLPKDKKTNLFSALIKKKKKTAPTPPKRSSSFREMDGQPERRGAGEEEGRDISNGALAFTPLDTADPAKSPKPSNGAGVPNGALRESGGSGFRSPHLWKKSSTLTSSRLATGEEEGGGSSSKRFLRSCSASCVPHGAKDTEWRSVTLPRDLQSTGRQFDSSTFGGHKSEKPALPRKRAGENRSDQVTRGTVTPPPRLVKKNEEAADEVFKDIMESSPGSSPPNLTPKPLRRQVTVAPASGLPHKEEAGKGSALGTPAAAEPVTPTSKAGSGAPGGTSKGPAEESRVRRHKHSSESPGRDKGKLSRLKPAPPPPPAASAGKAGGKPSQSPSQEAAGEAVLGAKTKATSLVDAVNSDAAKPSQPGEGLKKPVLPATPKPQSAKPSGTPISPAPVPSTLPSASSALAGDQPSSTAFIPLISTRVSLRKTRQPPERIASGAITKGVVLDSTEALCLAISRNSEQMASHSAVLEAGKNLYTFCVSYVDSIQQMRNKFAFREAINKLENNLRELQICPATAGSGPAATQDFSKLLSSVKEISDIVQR
Chain of Bcr/Abl fusion protein (Homo sapiens) (P11274 whole entry, looked up, the tested form may be a part): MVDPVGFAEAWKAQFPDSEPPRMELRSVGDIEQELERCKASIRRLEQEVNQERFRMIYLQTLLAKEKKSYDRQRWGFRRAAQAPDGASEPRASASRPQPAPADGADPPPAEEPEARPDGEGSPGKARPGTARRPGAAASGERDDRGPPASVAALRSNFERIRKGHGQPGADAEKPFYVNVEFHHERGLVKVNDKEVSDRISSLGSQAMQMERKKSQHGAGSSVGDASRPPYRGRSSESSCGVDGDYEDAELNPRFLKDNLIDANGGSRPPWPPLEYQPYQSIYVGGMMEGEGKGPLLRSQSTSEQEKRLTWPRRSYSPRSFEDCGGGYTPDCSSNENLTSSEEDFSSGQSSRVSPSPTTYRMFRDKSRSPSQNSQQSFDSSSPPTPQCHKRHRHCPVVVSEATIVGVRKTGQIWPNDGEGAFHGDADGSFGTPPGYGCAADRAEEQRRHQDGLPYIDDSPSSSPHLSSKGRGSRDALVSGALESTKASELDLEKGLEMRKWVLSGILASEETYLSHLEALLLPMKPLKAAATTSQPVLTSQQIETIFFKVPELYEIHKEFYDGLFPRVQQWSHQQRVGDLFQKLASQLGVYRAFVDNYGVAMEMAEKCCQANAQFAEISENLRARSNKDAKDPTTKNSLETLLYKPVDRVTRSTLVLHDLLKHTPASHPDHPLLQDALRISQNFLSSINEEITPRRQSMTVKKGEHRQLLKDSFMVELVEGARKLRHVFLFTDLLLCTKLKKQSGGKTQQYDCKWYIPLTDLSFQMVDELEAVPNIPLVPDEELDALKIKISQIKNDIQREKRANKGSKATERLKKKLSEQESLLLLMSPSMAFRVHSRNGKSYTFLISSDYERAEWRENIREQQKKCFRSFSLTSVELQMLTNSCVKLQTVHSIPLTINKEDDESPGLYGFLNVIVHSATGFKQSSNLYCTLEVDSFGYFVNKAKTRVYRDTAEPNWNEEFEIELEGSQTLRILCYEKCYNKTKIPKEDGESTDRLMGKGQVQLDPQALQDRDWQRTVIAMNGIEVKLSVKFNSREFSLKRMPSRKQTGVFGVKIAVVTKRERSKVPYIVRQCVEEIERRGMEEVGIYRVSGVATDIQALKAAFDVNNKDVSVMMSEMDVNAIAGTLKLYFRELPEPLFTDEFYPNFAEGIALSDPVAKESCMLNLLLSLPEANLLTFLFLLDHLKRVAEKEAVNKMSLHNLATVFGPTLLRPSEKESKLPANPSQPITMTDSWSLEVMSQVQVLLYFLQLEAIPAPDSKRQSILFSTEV

Row | SMILES | GI50 [1] [nM] | GI50 at 72 h [2] [nM] | GI50 [3] [nM]
1 | Cc1ccc(NC(=O)CCSc2ccc3c(/C=C/c4ccccn4)n[nH]c3c2)cc1 | 2870 | > 10000 | 4490
2 | O=C(CCSc1ccc2c(/C=C/c3ccccn3)n[nH]c2c1)Nc1cccc(F)c1 | 1510 | 6590 | 1990
3 | O=C(CCSc1ccc2c(/C=C/c3ccccn3)n[nH]c2c1)Nc1cccc(Cl)c1 | 1560 | 9350 | 2910
4 | O=C(CCSc1ccc2c(/C=C/c3ccccn3)n[nH]c2c1)Nc1ccc(F)c(C(F)(F)F)c1 | 300 | 610 | 120
5 | CN(C)c1cccc(NC(=O)CCSc2ccc3c(/C=C/c4ccccn4)n[nH]c3c2)c1 | 9670 | > 10000 | 5520
6 | COc1ccc(NC(=O)CCSc2ccc3c(/C=C/c4ccccn4)n[nH]c3c2)cc1C(F)(F)F | 590 | > 10000 | 860
7 | CNC(=O)CCSc1ccc2c(/C=C/c3ccccn3)n[nH]c2c1 | > 10000 | > 10000 | > 10000
8 | O=C(CCSc1ccc2c(/C=C/c3ccccn3)n[nH]c2c1)Nc1ccc(CN2CCOCC2)c(C(F)(F)F)c1 | 160 | 3970 | 210
9 | O=C(NCCSc1ccc2c(/C=C/c3ccccn3)n[nH]c2c1)c1cccc(C(F)(F)F)c1 | 2720 | 1500 | 1620
10 | CN1CCN(Cc2ccc(C(=O)NCCSc3ccc4c(/C=C/c5ccccn5)n[nH]c4c3)cc2C(F)(F)F)CC1 | 750 | 4800 | 930
11 | CN1CCN(Cc2ccc(NC(=O)CCSc3ccc4c(-c5ccccc5)n[nH]c4c3)cc2C(F)(F)F)CC1 | 32 | 600 | 110
12 | O=C(NCCSc1ccc2c(/C=C/c3ccccn3)n[nH]c2c1)Nc1cccc(C(F)(F)F)c1 | 2740 | 3000 | 2060
13 | CN1CCN(Cc2ccc(NC(=O)NCCSc3ccc4c(/C=C/c5ccccn5)n[nH]c4c3)cc2C(F)(F)F)CC1 | 180 | 3100 | 240
14 | O=C(CCSc1ccc2c(/C=C/c3ccccn3)n[nH]c2c1)Nc1ccc(CN2CCCC2)c(C(F)(F)F)c1 | 150 | 4000 | 120
15 | CN1CCN(Cc2ccc(NC(=O)CCSc3ccc4c(-c5cccnc5)n[nH]c4c3)cc2C(F)(F)F)CC1 | 70 | 2650 | 58
16 | CN1CCN(Cc2ccc(NC(=O)CCSc3ccc4c(-c5cnn(C)c5)n[nH]c4c3)cc2C(F)(F)F)CC1 | 15 | 1400 | 20
17 | O=C(CCSc1ccc2c(/C=C/c3ccccn3)n[nH]c2c1)Nc1ccccc1 | 500 | 690 | 510
